In patent US4180587A, “Ureylene phenylene anionic naphthalenesulfonic acids as complement inhibitors” (American Cyanamid Company, priority 1978, dated 1979):
Where two headings read alike, the source gives them in different places.

Legend:
[1] = test system: whole complement; experiment: Complement Level Reduction Test: serum of dosed guinea pigs tested for whole complement by capillary tube assay; assay type: in vivo, guinea pig; conditions: intraperitoneal, 200 mg/kg
Excerpt: An active inhibitor protects C2 from C1 and C4; (ii) Test Code 035 (C3-C9 inhibitor)--This test determines the ability of the late components of human complement (C3-C9) to lyse EAC 142 in the presence of appropriate dilutions of the test compound. An active inhibitor protects EAC 142 from lysis by human C3-C9; (iii) Test Code 036 (C-Shunt inhibitor)--In this test human erythrocytes rendered fragile are lysed in autologous serum via the shunt pathway activated by cobra venom factor in the presence of appropriate dilutions of the test compound. Inhibition of the shunt pathway results in failure of lysis; (iv) Forssman Vasculitis Test--Here, the well known complement dependent lesion, Forssman vasculitis, is produced in guinea pigs by intradermal injection of rabbit anti-Forssman antiserum. The lesion is measured in terms of diameter, edema and hemorrhage and the extent to which a combined index of these is inhibited by prior intraperitoneal injection of the test compound at 200 mg/kg is then reported, unless otherwise stated; (v) Forssman Shock Test--Lethal shock is produced in guinea pigs by an i.v. injection of anti-Forssman antiserum and the harmonic mean death time of treated guinea pigs is compared with that of simultaneous controls; (vi) Complement Level Reduction Test--In this test, the above dosed guinea pigs, or others, are bled for serum and the complement level is determined in undiluted serum by the capillary tube method of U.S. Pat. No. 3,876,376 and compared to undosed control guinea pigs; and (vii) Cap 50 Test--Here, appropriate amounts of the test compound are added to a pool of guinea pig serum in vitro, after which the undiluted serum capillary tube assay referred to above is run. The concentration of compound inhibiting 50% is reported.
With reference to Table I, guinea pigs weighing about 300 g were dosed intravenously (i.v.) or intraperitoneally (i.p.) with 200 mg/kg of the test compound dissolved in saline and adjusted to pH 7-8. […] The serum was tested for whole complement using the capillary tube assay. Percent inhibition was calculated by comparison with simultaneous controls. The results appear in Table I together with results of tests code 026, 035, 036, Cap 50, % inhibition and Forssman shock.

[2] = test system: late components of human complement (C3-C9); experiment: Test Code 035 (C3-C9 inhibitor): lysis of EAC 142 by late components of human complement; assay type: cell-based; conditions: activity in wells, twofold serial dilution; higher well number indicates higher activity
Excerpt: (§1) An active inhibitor protects C2 from C1 and C4; (ii) Test Code 035 (C3-C9 inhibitor)--This test determines the ability of the late components of human complement (C3-C9) to lyse EAC 142 in the presence of appropriate dilutions of the test compound. An active inhibitor protects EAC 142 from lysis by human C3-C9; (iii) Test Code 036 (C-Shunt inhibitor)--In this test human erythrocytes rendered fragile are lysed in autologous serum via the shunt pathway activated by cobra venom factor in the presence of appropriate dilutions of the test compound. Inhibition of the shunt pathway results in failure of lysis; (iv) Forssman Vasculitis Test--Here, the well known complement dependent lesion, Forssman vasculitis, is produced in guinea pigs by intradermal injection of rabbit anti-Forssman antiserum. […]

[3] = test system: shunt pathway; experiment: Test Code 036 (C-Shunt inhibitor): lysis of fragile human erythrocytes in autologous serum via shunt pathway activated by cobra venom factor; assay type: cell-based; conditions: activity in wells, twofold serial dilution
Excerpt: as §1

[4] = test system: human C1; experiment: Test Code 026 (C1 inhibitor): ability of activated human C1 to destroy fluid phase human C2 in the presence of C4; assay type: biochemical; conditions: activity in wells, twofold serial dilution; higher well number indicates higher activity
Excerpt: as §1

[5] = test system: complement system; conditions: reported in literature; cited from earlier work
[6] = reported in literature; cited from earlier work
[7] = test system: total hemolytic complement activity; conditions: in vitro; judged by reduction in total hemolytic complement activity; cited from earlier work
[8] = test system: total hemolytic complement activity; conditions: in vivo; judged by reduction in total hemolytic complement activity; cited from earlier work

With `Cc1ccc(C(=O)Nc2cc(C(=O)Nc3ccc(S(=O)(=O)[O-])c4cc(S(=O)(=O)[O-])cc(S(=O)(=O)[O-])c34)ccc2C)cc1NC(=O)Nc1cc(C(=O)Nc2cc(C(=O)Nc3ccc(S(=O)(=O)[O-])c4cc(S(=O)(=O)[O-])cc(S(=O)(=O)[O-])c34)ccc2C)ccc1C.[Na+].[Na+].[Na+].[Na+].[Na+].[Na+]` [Example 3, 8,8'-[Ureylenebis[(4-methyl-3,1-phenylenecarbonyl)imino(4-methyl-3,1-phenylenecarbonyl)imino]]di-1,3,5-naphthalenetrisulfonic acid, hexasodium salt] the “In Vivo Activity (Guinea Pig) % Inhibition” value ([1]; 30 minutes) was -58%, the “In Vivo Activity (Guinea Pig) % Inhibition” value ([1]; 60 minutes) was -65% and the “In Vivo Activity (Guinea Pig) % Inhibition” value ([1]; 120 minutes) was -77%. For the same compound, the “C-Late 035 Wells” value [2] was “+3 Wells”, the “Shunt Inhibition 036 Wells” value [3] was “N” and the “C1 026 Wells” value [4] was “+3 Wells”.
In the case of `Cc1ccc(C(=O)Nc2ccc(S(=O)(=O)O)c3cc(S(=O)(=O)O)cc(S(=O)(=O)O)c23)cc1NC(=O)c1cccc(NC(=O)Nc2cccc(C(=O)Nc3cc(C(=O)Nc4ccc(S(=O)(=O)O)c5cc(S(=O)(=O)O)cc(S(=O)(=O)O)c45)ccc3C)c2)c1` [Suramin], the “In Vivo Activity (Guinea Pig) % Inhibition” value ([1]; 30 minutes) is reported as -9%, the “In Vivo Activity (Guinea Pig) % Inhibition” value ([1]; 60 minutes) is reported as -17% and the “In Vivo Activity (Guinea Pig) % Inhibition” value ([1]; 120 minutes) is reported as -44%. For the same compound, the “C-Late 035 Wells” value [2] was “+2 Wells”, the “anticomplementary effect / activity as complement inhibitor” value [5] was “moderately active as a complement inhibitor” and the “C1 026 Wells” value [4] was “+4 Wells”.
In the case of `Nc1ccc2cc(S(=O)(=O)[O-])cc(O)c2c1N=Nc1ccc(NC(=O)Nc2ccc(N=Nc3c(N)ccc4cc(S(=O)(=O)[O-])cc(O)c34)c(S(=O)(=O)[O-])c2)cc1S(=O)(=O)[O-].[Na+].[Na+].[Na+].[Na+]` [chlorazol fast pink, 3,3'-ureylenebis[6-(2-amino-8-hydroxy-6-sulfo-1-naphthylazo)benzenesulfonic acid], tetrasodium salt], the “anticomplementary effect / activity as complement inhibitor” value [5] is listed as “anticomplementary effect”.
For `NCCCCCC(=O)O` [epsilon-aminocaproic acid], the “treatment of hereditary angioneurotic edema” value [6] is given as “used with success”.
For `NC[C@H]1CC[C@H](C(=O)O)CC1` [tranexamic acid], the “treatment of hereditary angioneurotic edema” value [6] is given as “used with success”.
In the case of heparin, the “anticomplementary effect / activity as complement inhibitor” value [5] is given as “anticomplementary effect”.
In the case of pentosan-polysulfoester, the “anticomplementary activity on human serum” value [7] is listed as “anticomplementary activity” and the “anticomplementary activity on human serum” value [8] is listed as “anticomplementary activity”.
